How the values were obtained:
[1] = system: A549-ACE2 infected with SARS-CoV-2; assay: cell count relative to DMSO; higher = less toxic; details: 24 h
A549-ACE2 [2] = assay: drug-induced phospholipidosis relative to tamoxifen; higher = more phospholipidosis
HepG2 [3] = assay: cell viability relative to DMSO; higher = less toxic; details: 72 h
Vero E6 [4] = assay: as above; details: 72 h
Calu-3 [5] = assay: as above; details: 72 h
U2OS [6] = assay: as above; details: 72 h
Caco-2 [7] = assay: as above; details: 72 h
[8] = system: A549-ACE2 infected with SARS-CoV-2; assay: SARS-CoV-2 infection rate relative to DMSO; higher = more infection; details: 24 h
[9] = system: A549-ACE2 infected with SARS-CoV-2; assay: morphology score (similarity to uninfected cells); higher = more like uninfected cells; details: 24 h
HepG2 [10] = assay: drug sensitivity score (DSS) for viability; higher = more toxic; extreme values may be limits of the assay; details: 72 h
Vero E6 [11] = assay: as above; details: 72 h
Calu-3 [12] = assay: as above; details: 72 h
U2OS [13] = assay: as above; details: 72 h
Caco-2 [14] = assay: as above; details: 72 h
HepG2 [15] = assay: relative viability EC50 (midpoint between 100% and the lowest measured viability); higher = less toxic; details: 72 h
Vero E6 [16] = assay: as above; details: 72 h
Calu-3 [17] = assay: as above; details: 72 h
U2OS [18] = assay: as above; details: 72 h
Caco-2 [19] = assay: as above; details: 72 h
A549-ACE2 [20] = assay: phospholipidosis EC50; higher = less potent phospholipidosis inducer; details: 24 h

O=C(OCC(O)CO)c1ccccc1Nc1ccnc2cc(Cl)ccc12 (configuration not stated) [glafenine]
Details | SARS-CoV-2 infection rate, [8] [%] | cell count, [1] [%] | cell viability, Caco-2 [7] [%] | cell viability, Calu-3 [5] [%] | cell viability, HepG2 [3] [%] | cell viability, U2OS [6] [%] | cell viability, Vero E6 [4] [%] | morphology score, [9]
1 nM | – | – | 84.7 | 89.4 | 99.8 | 97.2 | 101 | –
10 nM | – | – | 95.9 | 100 | 81.1 | 102 | 90.5 | –
100 nM | – | – | 66.6 | 87.7 | 97.4 | 94.8 | 102 | –
0.3 µM | 94 | 103 | – | – | – | – | – | 0.2
1000 nM | – | – | 89.5 | 106 | 91 | 98.2 | 86.9 | –
3 µM | 88 | 85 | – | – | – | – | – | 0.28
10 µM | 97 | 115 | – | – | – | – | – | 0.42
10000 nM | – | – | 95.7 | 94 | 94.3 | 89 | 107 | –
30 µM | 53 | 104 | – | – | – | – | – | 0.74

drug-induced phospholipidosis [%], A549-ACE2 [2]
Details | 0.3 µM | 0.833333 µM | 3.33333 µM | 6.66667 µM | 10 µM | 30 µM
24 h | 0.74 | 1.36 | 2 | 1.93 | 2.17 | 23.8
48 h | 0.09 | -3.04 | 0.5 | 3.25 | 3.8 | 23.1
72 h | -1.15 | -3.87 | -2.67 | 0.336 | 3.93 | 30.1

Details | drug sensitivity score | relative viability EC50 [µM]
Caco-2 [14] | 0 | –
Caco-2 [19] | – | > 10
Calu-3 [12] | 0 | –
Calu-3 [17] | – | > 10
HepG2 [10] | 0 | –
HepG2 [15] | – | > 10
U2OS [13] | 0 | –
U2OS [18] | – | > 10
Vero E6 [11] | 0 | –
Vero E6 [16] | – | > 10

O=C1Cc2c([nH]c3ccc(Br)cc23)-c2ccccc2N1 [kenpaullone]
Details | SARS-CoV-2 infection rate, [8] [%] | cell count, [1] [%] | cell viability, Caco-2 [7] [%] | cell viability, Calu-3 [5] [%] | cell viability, HepG2 [3] [%] | cell viability, U2OS [6] [%] | cell viability, Vero E6 [4] [%] | morphology score, [9]
1 nM | – | – | 99.6 | 92.1 | 110 | 98.4 | 93.4 | –
10 nM | – | – | 93.2 | 95.1 | 96.2 | 98.9 | 93.6 | –
100 nM | – | – | 100 | 98.9 | 100 | 98.8 | 90.1 | –
0.3 µM | 106 | 103 | – | – | – | – | – | 0.06
1000 nM | – | – | 102 | 113 | 108 | 104 | 101 | –
3 µM | 96 | 100 | – | – | – | – | – | 0.37
10 µM | 94 | 85 | – | – | – | – | – | 0.47
10000 nM | – | – | 96 | 101 | 100 | 82.3 | 115 | –
30 µM | 88 | 67 | – | – | – | – | – | 0.48

drug-induced phospholipidosis [%], A549-ACE2 [2]
Details | 0.3 µM | 0.833333 µM | 3.33333 µM | 6.66667 µM | 10 µM | 30 µM
24 h | -0.53 | -1.07 | -1.23 | 1.24 | -0.93 | 4.23
48 h | 1.47 | -0.14 | 1.75 | 3.52 | 2.75 | 2.49
72 h | 2.92 | 0.874 | 5.13 | 6.52 | 5.66 | 9.54

Details | drug sensitivity score | relative viability EC50 [µM]
Caco-2 [14] | 0 | –
Caco-2 [19] | – | > 10
Calu-3 [12] | 0 | –
Calu-3 [17] | – | > 10
HepG2 [10] | 0 | –
HepG2 [15] | – | > 10
U2OS [13] | 0.3 | –
U2OS [18] | – | > 10
Vero E6 [11] | 0 | –
Vero E6 [16] | – | > 10

NC(=O)N1CCC(CC(=O)N2CCC([C@H]3c4ncc(Br)cc4CCc4cc(Cl)cc(Br)c43)CC2)CC1 [lonafarnib]
Details | SARS-CoV-2 infection rate, [8] [%] | cell count, [1] [%] | cell viability, Caco-2 [7] [%] | cell viability, Calu-3 [5] [%] | cell viability, HepG2 [3] [%] | cell viability, U2OS [6] [%] | cell viability, Vero E6 [4] [%] | morphology score, [9]
1 nM | – | – | 91.3 | 80.5 | 102 | 97.5 | 103 | –
10 nM | – | – | 106 | 91.2 | 98.7 | 100 | 94.1 | –
100 nM | – | – | 94.6 | 91.3 | 96.2 | 95 | 94.8 | –
0.3 µM | 97 | 98 | – | – | – | – | – | 0.19
1000 nM | – | – | 79.7 | 72.6 | 89.5 | 92 | 93.3 | –
3 µM | 85 | 102 | – | – | – | – | – | 0.41
10 µM | 71 | 94 | – | – | – | – | – | 0.69
10000 nM | – | – | 47.7 | 68.5 | 49.8 | 67.2 | 88.3 | –
30 µM | 11 | 74 | – | – | – | – | – | 0.56

drug-induced phospholipidosis [%], A549-ACE2 [2]
Details | 0.3 µM | 0.833333 µM | 3.33333 µM | 6.66667 µM | 10 µM | 30 µM
24 h | 11.7 | 7.58 | 19.6 | 27.3 | 40.9 | 50.3
48 h | 16.3 | 10.1 | 20.5 | 30.3 | 36.1 | –
72 h | 15.9 | 12.2 | 29.3 | 42.5 | 51.2 | –

Details | drug sensitivity score | phospholipidosis EC50 [µM] | relative viability EC50 [µM]
A549-ACE2 [20] | – | 7.17 | –
Caco-2 [14] | 5 | – | –
Caco-2 [19] | – | – | 1.29
Calu-3 [12] | 6.3 | – | –
HepG2 [10] | 4.4 | – | –
HepG2 [15] | – | – | 1.7
U2OS [13] | 2.6 | – | –
Vero E6 [11] | 0 | – | –
Vero E6 [16] | – | – | > 10

O=C1NCN(c2ccccc2)C12CCN(CC1COc3ccccc3O1)CC2 (configuration not stated) [spiroxatrine]
cell viability [%]
Details | Caco-2 [7] | Calu-3 [5] | HepG2 [3] | U2OS [6] | Vero E6 [4]
1 nM | 95.2 | 98.3 | 87.5 | 106 | 103
10 nM | 101 | 99 | 94.3 | 98 | 99.8
100 nM | 101 | 92 | 87.6 | 99.3 | 104
1000 nM | 100 | 100 | 104 | 94.8 | 97.9
10000 nM | 98.2 | 104 | 103 | 99 | 109

Details | drug sensitivity score | relative viability EC50 [µM]
Caco-2 [14] | 0 | –
Caco-2 [19] | – | > 10
Calu-3 [12] | 0 | –
Calu-3 [17] | – | > 10
HepG2 [10] | 0 | –
HepG2 [15] | – | > 10
U2OS [13] | 0 | –
U2OS [18] | – | > 10
Vero E6 [11] | 0 | –
Vero E6 [16] | – | > 10

OC[C@H]1O[C@H](O[C@]2(CCl)O[C@H](CCl)[C@@H](O)[C@@H]2O)[C@H](O)[C@@H](O)[C@H]1Cl [sucralose]
cell viability [%]
Details | Caco-2 [7] | Calu-3 [5] | HepG2 [3] | U2OS [6] | Vero E6 [4]
1 nM | 96.8 | 99.6 | 99.1 | 102 | 100
10 nM | 94.1 | 91.8 | 97.7 | 100 | 102
100 nM | 99.1 | 98.5 | 96.8 | 103 | 101
1000 nM | 95.9 | 99.1 | 96.2 | 96 | 106
10000 nM | 101 | 95.5 | 97 | 103 | 92.7

Details | drug sensitivity score | relative viability EC50 [µM]
Caco-2 [14] | 0 | –
Caco-2 [19] | – | > 10
Calu-3 [12] | 0 | –
Calu-3 [17] | – | > 10
HepG2 [10] | 0 | –
HepG2 [15] | – | > 10
U2OS [13] | 0 | –
U2OS [18] | – | > 10
Vero E6 [11] | 0 | –
Vero E6 [16] | – | > 10
